Data as given in patent US20070141171A1, “NOVEL COMPOSITION AND METHOD FOR THE TREATMENT OF HYPERTENSION” (priority 2003, published 2007).

What was measured:
Format in all cases: cell-based
[1] = system: cultured human aortic smooth muscle cells (SMC); experiment: SMC collagen gel contraction stimulated by angiotensin II; conditions: for rank of effectiveness on ATII-induced gel contraction (catechins) / rank of effectiveness on ATII (polyphenols): at 30; for effect on ATII-induced gel: 1-4 mM, individual or comb; for GA, % vs 100% control / increase in gel area (GA) vs ATII: 30 mcM; for GA, % vs 100% control: ATII alone 76%; for activity as inhibitor of Ang II-stimulated gel contraction: summary statement
Experimental: Plant-derived bioflavonoids have been recognized to support arterial wall structural integrity and interfere with a variety of pro-atherosclerotic stimuli. We tested whether bioflavonoids have an effect on the contractile activity of cultured human aortic smooth muscle cells (SMC) embedded in a three-dimensional type I collagen (1 mg/mL) matrix. […]
The following starting material and equipment were used. • 1. Cultured vascular smooth muscle cells (SMC) isolated from human aorta.
Cells are used from 4th to 8th passages. • 2. Human collagen type I. • 3. Angiotensin II. • 4. Epican Forte (composition shown in Table 1, available from Matthias Rath, Inc., and all ingredients commercially available) • 5. Epigallocatechin gallate (EGCG) • 6. Quercetin (chemical structure is well defined) • 7. Cell culture medium (DMEM) • 8. 24 well plastic cell culture plate pre-incubated with 2 mg/ml bovine serum albumin. • 9. Digital camera • 10. Digital image analyzing software (Scion Corporation). • 11. Zymography gel electrophoresis assay (Novorex Corp).
Confluent culture of SMC and suspended from culture flask by trypsinization and washed with phosphate-buffered saline (PBS) from serum-containing medium. Cell concentration in suspension was brought to 500,000 cell per mL in serum-free DMEM. Cell suspension was then mixed 1:1 with ice-cold 2 mg/ml collagen type I solution in PBS. Final concentration of collagen was 1 mg/mL, final cell concentration is 250,000 per mL. Collagen-SMC suspension was distributed by 300 microL to the wells of 24 well plate in such a manner to cover the entire bottom surface of the well. The plate was then incubated for one hour at 37° C. to allow gel to polymerize. 0.5 mL of experimental serum-free medium containing no additions (control), […] was added to polymerized gel, plate was then gently tapped on the side to detach gel from the bottom of plastic well, and plate was then placed to incubator with the controlled atmosphere containing 5%CO2 at 37° C. for incubation. After 24 hour incubation plate was taken from the incubator and plate image with floating gels was taken using digital camera. Gel flat surface area is measured with digital image analyzing software. Sample of cell culture media was taken for analysis of matrix metalloproteinases activity by zymography (Novorex Corp). Experiments were performed in triplicates and results are presented as a mean +/−SD.

[2] = system: cultured human aortic smooth muscle cells (SMC); experiment: SMC collagen gel contraction stimulated by Angiotensin I; conditions: Mar. 25, 2003; ATI 330-1000 nM alone
[3] = system: cultured human aortic smooth muscle cells (SMC); experiment: SMC collagen gel contraction stimulated by Thrombin; conditions: for GA, % vs 100% control: 30 mcM, Thrombin alone 70%
[4] = Mar. 25, 2003, in combination with EF

Compound: Oc1cc(O)c2c(c1)OC(c1ccc(O)c(O)c1)C(O)C2 (stereo not drawn) [C]
- rank of effectiveness on ATII-induced gel contraction (catechins) ([1]; Apr. 17, 2003): EC=C

Compound: Angiotensin I (DRVYIHPFHL; Angiotensin-1; UniProt P01019 25-34, looked up) [ATI, stimulus of gel contraction]
- gel reduction [2]: gel reduction at 1000 nM only

Compound: Angiotensin II (DRVYIHPF; Angiotensin-2; UniProt P01019 25-32, looked up) [ATII, stimulus of gel contraction, reference compound]
- GA reduced by ([1]; Apr. 2, 2003, ATII alone at 1 mcM): 24%
- effect on gel contraction ([1]; Mar. 7, 2003, ATII 1 mcM alone): no effects
- gel reduction to % of Control 100% ([1]; Mar. 11, 2003, ATII 1 mcM alone): 59%
- gel reduction to % of 100% control ([1]; Mar. 18, 2003, ATII 1 mcM alone): 23%
- gel reduction to % of 100% control ([1]; Mar. 20, 2003, ATII 1 mcM alone): 81%
- reduction in gel ([1]; Mar. 25, 2003, ATII 110-330-1000 nM alone): dose dependent reduction in gel
- GA reduction ([1]; Mar. 26, 2003, ATII 1 mcM alone): 21%

Compound: [Mg+2] [Mg]
- effect on ATII-induced gel ([1]; Mar. 20, 2003): no effects

Compound: CC(=O)N[C@@H](CS)C(=O)O [NAC, N-Acetyl Cystein]
- GA returned to % of control ([1]; Mar. 26, 2003, NAC 2 mcM, ATII 1 mcM (21% reduction)): 100%
- effect on ATII GA reduction ([1]; Mar. 26, 2003, NAC higher concentration up to 60 mcM): did not have any effect

Compound: Thrombin [reference compound]
- GA reduced by ([3]; Apr. 2, 2003, Thrombin alone at 1 mcM): 30%
- effect on gel contraction ([3]; Mar. 7, 2003, Thrombin 0.1 U/mL alone): no effects
- gel reduced by ([3]; Mar. 10, 2003, Thrombin 0.1 U/mL alone, 9% in control): 58%

Compound: C[C@@H]1O[C@@H](OC[C@H]2O[C@@H](Oc3c(-c4ccc(O)c(O)c4)oc4cc(O)cc(O)c4c3=O)[C@H](O)[C@@H](O)[C@@H]2O)[C@H](O)[C@H](O)[C@H]1O [Rutin]
- GA, % vs 100% control ([1]; Apr. 2, 2003): 80%
- GA, % vs 100% control ([3]; Apr. 2, 2003): 56%

Compound: NCCCC[C@H](N)C(=O)O [Lysine]
- effect on ATII GA reduction ([1]; Mar. 28, 2003, 0.25-1 mM): did not effect

Compound: Oc1ccc(C=Cc2cc(O)cc(O)c2)cc1 [Resveratrol]
- GA, % vs 100% control ([1]; Apr. 2, 2003): 88%
- rank of effectiveness on ATII (polyphenols) ([1]; Apr. 17, 2003): Querc30=>Genist30=>Resver30=>Rutin30
- effect on gel area vs ATII ([1]; Mar. 25, 2003, 15 mcM, alone): no effect
- effect on EF effect ([1]; Mar. 25, 2003, 15 mcM, with EF): no effect
- increase in gel area (GA) vs ATII ([1]; Mar. 25, 2003, alone): 45%
- increase in gel area (GA) vs ATII [1, 4]: 104%
- GA, % vs 100% control ([3]; Apr. 2, 2003): 106%

Compound: O=c1c(O)c(-c2ccc(O)c(O)c2)oc2cc(O)cc(O)c12 [Quercetin]
- activity as inhibitor of Ang II-stimulated gel contraction ([1]; 1 micromol/L Ang II, 24 hours): most active inhibitors of gel contraction
- GA, % vs 100% control ([1]; Apr. 2, 2003): 167%
- rank of effectiveness on ATII (polyphenols) ([1]; Apr. 17, 2003): Querc30=>Genist30=>Resver30=>Rutin30
- inhibition at 30 µM ([1]; Homo sapiens, 30 micromol/L, 1 micromol/L Ang II, 24 hours, read-out: inhibition of Ang II-induced gel contraction): 120%
- GA, % vs 100% control ([3]; Apr. 2, 2003): 133%

Compound: O=C(O)[C@@H]1CCCN1 [Proline]
- effect on ATII GA reduction ([1]; Mar. 28, 2003, 0.25-1 mM): did not effect

Compound: O=C(O[C@@H]1Cc2c(O)cc(O)cc2O[C@@H]1c1cc(O)c(O)c(O)c1)c1cc(O)c(O)c(O)c1 [EGCG, Epigallocatechin gallate]
- activity as inhibitor of Ang II-stimulated gel contraction ([1]; 1 micromol/L Ang II, 24 hours): most active inhibitors of gel contraction
- inhibition of Ang II-induced gel contraction ([1]; 30 micromol/L, 1 micromol/L Ang II, 24 hours): 97%
- GA, % vs 100% control ([1]; Apr. 2, 2003): 150%
- effect on gel contraction by ATII ([1]; Apr. 17, 2003, EGCG 3.3-10-30 mcM): dose-dependently reduced gel contraction
- rank of effectiveness on ATII-induced gel contraction (catechins) ([1]; Apr. 17, 2003): more effective than ECG30
- gel reduction to % of 100% control ([1]; Mar. 18, 2003, ATII 1 mcM + EGCG 15 mcM): 30%
- GA, % vs 100% control ([3]; Apr. 2, 2003): 206%

Compound: O=C(O[C@@H]1Cc2c(O)cc(O)cc2O[C@@H]1c1ccc(O)c(O)c1)c1cc(O)c(O)c(O)c1 [ECG]
- rank of effectiveness on ATII-induced gel contraction (catechins) ([1]; Apr. 17, 2003): more effective than EC=C

Compound: Oc1cc(O)c2c(c1)O[C@H](c1ccc(O)c(O)c1)[C@H](O)C2 [EC]
- rank of effectiveness on ATII-induced gel contraction (catechins) ([1]; Apr. 17, 2003): EC=C

Compound: N=C(N)NCCC[C@H](N)C(=O)O [Arginine]
- effect on ATII-induced gel reduction ([1]; Mar. 20, 2003, Arginine 0.5-2 mM): no significant effect

Compound: [Ca+2] [Ca]
- effect on ATII-induced gel ([1]; Mar. 20, 2003): no effects

Compound: O=c1c(-c2ccc(O)cc2)coc2cc(O)cc(O)c12 [Genistein]
- GA, % vs 100% control ([1]; Apr. 2, 2003): 96%
- rank of effectiveness on ATII (polyphenols) ([1]; Apr. 17, 2003): Querc30=>Genist30=>Resver30=>Rutin30
- increase in gel area (GA) vs ATII ([1]; Mar. 25, 2003, alone): 34%
- increase in gel area (GA) vs ATII [1, 4]: 11%
- GA, % vs 100% control ([3]; Apr. 2, 2003): 78%

Compound: O=C1O[C@H]([C@@H](O)CO)C(O)=C1O [AsA, ascorbic acid]
- activity as inhibitor of Ang II-stimulated gel contraction ([1]; 1 micromol/L Ang II, 24 hours): not significantly active
- effect on ATII GA reduction ([1]; Apr. 2, 2003, AsA 200 mcM): had no effect
- effect on ATII-induced gel reduction ([1]; Apr. 17, 2003, AsA 500 mcM alone): did not have effect
- effect on ATII-induced gel reduction ([1]; Apr. 17, 2003, AsA 500 mcM in combination with 10 EGCG): did not have effect
- gel reduction to % of 100% control ([1]; Mar. 18, 2003, ATII 1 mcM + AsA 100 mcM): 30%
- gel reduction to % vs 100% ATII 1 mcM ([1]; Mar. 20, 2003, AsA 0.5 mM + ATII): 90%
- effect on Thrombin GA reduction ([3]; Apr. 2, 2003, AsA 200 mcM): had no effect
